Some results are limits rather than exact numbers.

T1 sequence (Q9Y5N1 whole entry): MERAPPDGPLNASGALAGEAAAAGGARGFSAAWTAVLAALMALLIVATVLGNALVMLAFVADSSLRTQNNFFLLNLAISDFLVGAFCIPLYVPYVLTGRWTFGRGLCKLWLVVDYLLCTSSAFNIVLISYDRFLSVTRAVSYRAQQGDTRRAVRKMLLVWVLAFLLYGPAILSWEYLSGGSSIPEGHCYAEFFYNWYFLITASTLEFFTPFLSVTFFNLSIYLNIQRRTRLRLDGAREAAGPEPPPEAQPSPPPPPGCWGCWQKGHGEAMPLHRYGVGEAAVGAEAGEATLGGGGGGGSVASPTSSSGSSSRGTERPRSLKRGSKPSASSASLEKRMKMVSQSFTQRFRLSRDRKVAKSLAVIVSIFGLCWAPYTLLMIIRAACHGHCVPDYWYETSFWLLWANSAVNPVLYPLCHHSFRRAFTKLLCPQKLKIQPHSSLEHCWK

This experiment concerns the target T1, histamine H3 receptor (Homo sapiens, UniProt Q9Y5N1).
T1 construct: expressed in transfected cells; host or cells: CHO K1 cells (pSwitch/pGene GeneSwitch system, mifepristone-induced), clone 3H3; membrane preparation
Briefly: Histamine H3 functional antagonist assay ([35S]-GTPγS SPA on membranes). The experiment is classed as biochemical. Particulars: hydrochloride salts tested; membrane prepared from cultured H3 cells; averages of a number of experiments; read-out: functional pKi (fpKi), histamine H3 functional antagonism (converted). An excerpt: A membrane preparation containing histamine H3 receptors may be prepared in accordance with the following procedures:
(i) Generation of Histamine H3 Cell Line
DNA encoding the human histamine H3 gene (Huvar, A. et al. (1999) Mol. Pharmacol. 55(6), 1101-1107) was cloned into a holding vector, pCDNA3.1 TOPO (InVitrogen) and its cDNA was isolated from this vector by restriction digestion of plasmid DNA with the enzymes BamH1 and Not-1 and ligated into the inducible expression vector pGene (InVitrogen) digested with the same enzymes. The GeneSwitch™ system (a system where in transgene expression is switched off in the absence of an inducer and switched on in the presence of an inducer) was performed as described in U.S. Pat. Nos. 5,364,791; 5,874,534; and 5,935,934. Ligated DNA was transformed into competent DH5α E. coli host bacterial cells and plated onto Luria Broth (LB) agar containing Zeocin™ (an antibiotic which allows the selection of cells expressing the sh ble gene which is present on pGene and pSwitch) at 50 μg ml^−1. Colonies containing the re-ligated plasmid were identified by restriction analysis. DNA for transfection into mammalian cells was prepared from 250 ml cultures of the host bacterium containing the pGeneH3 plasmid and isolated using a DNA preparation kit (Qiagen Midi-Prep) as per manufacturers guidelines (Qiagen).
CHO K1 cells previously transfected with the pSwitch regulatory plasmid (InVitrogen) were seeded at 2×10e6 cells per T75 flask in Complete Medium, containing Hams F12 (GIBCOBRL, Life Technologies) medium supplemented with 10% v/v dialysed foetal bovine serum, L-glutamine, and hygromycin (100 μg ml^−1), 24 hours prior to use. Plasmid DNA was transfected into the cells using Lipofectamine plus according to the manufacturers guidelines (InVitrogen). 48 hours post transfection cells were placed into complete medium supplemented with 500 μg ml^−1 Zeocin™.
10-14 days post selection 10 nM Mifepristone (InVitrogen), was added to the culture medium to induce the expression of the receptor. 18 hours post induction cells were detached from the flask using ethylenediamine tetra-acetic acid (EDTA; 1:5000; InVitrogen), following several washes with phosphate buffered saline pH 7.4 and resuspended in Sorting Medium containing Minimum Essential Medium (MEM), without phenol red, and supplemented with Earles salts and 3% Foetal Clone II (Hyclone). Approximately 1×10e7 cells were examined for receptor expression by staining with a rabbit polyclonal antibody, 4a, raised against the N-terminal domain of the histamine H3 receptor, incubated on ice for 60 minutes, followed by two washes in sorting medium. Receptor bound antibody was detected by incubation of the cells for 60 minutes on ice with a goat anti rabbit antibody, conjugated with Alexa 488 fluorescence marker (Molecular Probes). Following two further washes with Sorting Medium, cells were filtered through a 50 μm Filcon™ (BD Biosciences) and then analysed on a FACS Vantage SE Flow Cytometer fitted with an Automatic Cell Deposition Unit. Control cells were non-induced cells treated in a similar manner. Positively stained cells were sorted as single cells into 96-well plates, containing Complete Medium containing 500 μg ml^−1 Zeocin™ and allowed to expand before reanalysis for receptor expression via antibody and ligand binding studies. One clone, 3H3, was selected for membrane preparation.
(ii) Membrane Preparation from Cultured Cells
All steps of the protocol are carried out at 4° C. and with pre-cooled reagents. The cell pellet is resuspended in 10 volumes of homogenisation buffer (50 mM N-2-hydroxyethylpiperazine-N′-2-ethanesulfonic acid (HEPES), 1 mM ethylenediamine tetra-acetic acid (EDTA), pH 7.4 with KOH), supplemented with 10e-4M leupeptin (acetyl-leucyl-leucyl-arginal; Sigma L2884), 25 μg/ml bacitracin (Sigma B0125), 1 mM phenylmethylsulfonyl fluoride (PMSF) and 2×10e-6M pepstatin A (Sigma). […]
In general terms: GTPγS resists hydrolysis and so accumulates on activated G proteins.
For the compound `Cc1noc(-c2ccc(-n3cc4c(n3)CCN(C3CCCC3)CC4)cc2)n1` [Example E27, 6-Cyclopentyl-2-[4-(3-methyl-1,2,4-oxadiazol-5-yl)phenyl]-2,4,5,6,7,8-hexahydropyrazolo[3,4-d]azepine], the Ki is below 1 nM. Consider `O=C1OCCN1c1ccc(-n2cc3c(n2)CCN(C2CCCC2)CC3)cc1` [Example E30], for which the Ki was below 1 nM. For `c1cc(-n2cc3c(n2)CCN(C2CCC2)CC3)ccc1N1CCOCC1` [Example E39, 6-Cyclobutyl-2-[4-(4-morpholinyl)phenyl]-2,4,5,6,7,8-hexahydropyrazolo[3,4-d]azepine], the Ki was below 1 nM.

On to `CC(C)N1CCc2cn(-c3ccc(N4CCOC4=O)cc3)nc2CC1` [Example E9, 3-{4-[6-(1-Methylethyl)-5,6,7,8-tetrahydropyrazolo[3,4-d]azepin-2(4H)-yl]phenyl}-1,3-oxazolidin-2-one], for which the Ki was below 1 nM. For `Cc1noc(-c2ccc(-n3cc4c(n3)CCN(C(C)C)CC4)cc2)n1` [Example E15, 6-(1-Methylethyl)-2-[4-(3-methyl-1,2,4-oxadiazol-5-yl)phenyl]-2,4,5,6,7,8-hexahydropyrazolo[3,4-d]azepine] the value was below 1 nM; for `O=C1CCCN1c1ccc(-n2cc3c(n2)CCN(C2CCC2)CC3)cc1` [Example E13], below 0.316 nM; for `CC(C)CN1CCc2cn(-c3ccc(N4CCCC4=O)cc3)nc2CC1` [Example E20], below 1 nM. The value for `Cc1ccc(N2CCC(n3cc4c(n3)CCN(C3CCC3)CC4)CC2)cn1` [Example E44, 6-Cyclobutyl-2-[1-(6-methyl-3-pyridinyl)-4-piperidinyl]-2,4,5,6,7,8-hexahydropyrazolo[3,4-d]azepine] was below 1 nM; that for `Cc1noc(-c2ccc(-n3cc4c(n3)CCN(C3CCC3)CC4)cc2)n1` [Example E25, 6-Cyclobutyl-2-[4-(3-methyl-1,2,4-oxadiazol-5-yl)phenyl]-2,4,5,6,7,8-hexahydropyrazolo[3,4-d]azepine] was below 1 nM. For the compound `O=C1OCCN1c1ccc(-n2cc3c(n2)CCN(C2CCC2)CC3)cc1` [Example E37, 3-[4-(6-Cyclobutyl-5,6,7,8-tetrahydropyrazolo[3,4-d]azepin-2(4H)-yl)phenyl]-1,3-oxazolidin-2-one], the Ki is below 0.316 nM. For `CCN1CCc2cn(-c3ccc(N4CCCC4=O)cc3)nc2CC1` [Example E18, 1-[4-(6-Ethyl-5,6,7,8-tetrahydropyrazolo[3,4-d]azepin-2(4H)-yl)phenyl]-2-pyrrolidinone] the value was below 0.316 nM; for `CC(C)N1CCc2cn(-c3ccc(N4CCCC4=O)cc3)nc2CC1` [Example E14, 1-{4-[6-(1-Methylethyl)-5,6,7,8-tetrahydropyrazolo[3,4-d]azepin-2(4H)-yl]phenyl}-2-pyrrolidinone], below 1 nM; for `O=C1CCCN1c1ccc(-n2cc3c(n2)CCN(C2CCCC2)CC3)cc1` [Example E24, 1-[4-(6-Cyclopentyl-5,6,7,8-tetrahydropyrazolo[3,4-d]azepin-2(4H)-yl)phenyl]-2-pyrrolidinone], below 1 nM. The value for `CC(C)N1CCc2cn(-c3ccc(N4CCN(C)C4=O)cc3)nc2CC1` [Example E10, 1-Methyl-3-{4-[6-(1-methylethyl)-5,6,7,8-tetrahydropyrazolo[3,4-d]azepin-2(4H)-yl]phenyl}-2-imidazolidinone] was below 1 nM; that for `CC(C)CN1CCc2cn(-c3ccc(N4CCOC4=O)cc3)nc2CC1` [Example E42] was below 1 nM; that for `CN1CCN(c2ccc(-n3cc4c(n3)CCN(C3CCCC3)CC4)cc2)C1=O` [Example E31] was below 1 nM. The value for `O=C1CCCN1c1ccc(-n2cc3c(n2)CCN(C2CCC2)CC3)cn1` [Example E12, 1-[5-(6-Cyclobutyl-5,6,7,8-tetrahydropyrazolo[3,4-d]azepin-2(4H)-y)-2-pyridinyl]-2-pyrrolidinone] was below 1 nM. With `CN1CCN(c2ccc(-n3cc4c(n3)CCN(C3CCC3)CC4)cc2)C1=O` [Example E36], the Ki was below 0.316 nM.

These data come from patent publication US7888347B2, “Pyrazolo [3,4-D]azepine derivatives as histamine H3 antagonists” (Glaxo Group Limited, priority 2005, dated 2011).
